The source of these data is patent US20080045486A1, “OCULAR ADMINISTRATION OF TESTOSTERONE” (priority 2006, published 2008).

Series [1] in a line: Safety and pharmacokinetics study of testosterone ophthalmic solutions for up to 14 days in postmenopausal women. The series is classed as in vivo, human. To be noted: for equivalent absorbed daily dose: assuming production rate 0.125 mg/day; for median Cmax of serum testosterone concentration: each eye twice daily, day 13, healthy postmenopausal women. As to the method:
A clinical study entitled “A Single-Center, Double Masked, Parallel, Dose-Ranging, Vehicle Controlled Study Evaluating the Safety and Pharmacokinetics of Testosterone (0.03%, 0.1%, 0.3%, and 0.6%) Ophthalmic Solutions for up to 14 Days in Postmenopausal Women” was conducted to determine the effectiveness of the ocular administration of testosterone. This study was a randomized, single-center, double-masked, parallel-group study of five treatment groups, with each subject acting as their own baseline control for serum testosterone concentrations. Subjects received testosterone ophthalmic solution 0.03%, 0.1%, 0.3%, 0.6% or vehicle ophthalmic solution in each eye twice daily for 14 days. Each subject had blood withdrawn for the measurement of serum testosterone concentrations. On day 13, blood samples were taken prior to the morning dose (time 0), and at 5, 10, 20, 30, and 45 minutes, 1, 2, 4, 6, 8, and 12 hours post-dose. On day −1, blood samples were taken at the same time as day 13 to evaluate the baseline serum testosterone levels. On days −6, 7, 14, and 27, one blood sample was taken at the same time as day 13 predose draw to evaluate the trough serum testosterone levels (there were no dosing on days −6, −1, and 27). […] Serum testosterone concentrations were assayed using a validated double antibody radioimmunoassay method with a lower limit of quantitation (LLOQ) at 29 pg/mL or 2.9 ng/dL.

Series [2] in a line: 16-week dose-ranging study of testosterone ophthalmic solutions in patients with keratoconjunctivitis sicca, serum pharmacokinetics. The series is classed as in vivo, human. The note with it: for increase of serum testosterone concentration over the endogenous baseline / concentration at 10 min: 10 minutes after dosing; for increase of serum testosterone concentration over the endogenous baseline: male patients; for concentration at 10 min: human, serum, other: ophthalmic solution, eye drop, one drop twice daily, female patients, baseline approximately 20 ng/dL. As to the method:
Another clinical study entitled “A Multi-Center, Parallel, Randomized, Double-Masked, Vehicle-Controlled, Dose-Ranging Study to Evaluate the Safety, Tolerability and Efficacy of Testosterone 0.01%, 0.1%, and 0.3% Ophthalmic Solutions Administered Twice Daily for 16 weeks in Patients with Keratoconjunctivitis Sicca (KCS)” was conducted to determine the effectiveness of the ocular administration of testosterone in both women and men. This study was a randomized, multi-center, double-masked, parallel-group study of three treatment groups and one vehicle group. Patients were randomized to either 0.01%, 0.1%, 0.3% testosterone or vehicle of 0.3% testosterone ophthalmic solution. In the treatment phase, patients were instructed to instill one drop of the randomly assigned masked treatment twice daily (in the morning upon waking and before bedtime) for 16 weeks. Data from 135 patients (100 females and 35 males) were included in the pharmacokinetic data analysis. A single blood sample (20 mL) was taken from each patient pre-dose and at 10 minutes post dose on day 0, weeks 1, 4, 8, 12, and 16 for the determination of serum testosterone, dihydrotestosterone, 3-alpha-androstanediol glucuronide and sex hormone binding globulin concentrations. Serum concentrations of testosterone and dihydrotestosterone were determined by a validated gas chromatography-mass spectrometry (GC-MS) method with a quantitation range for DHT of 0.1 to 100 ng/dL and for testosterone of 1.0 to 1000 ng/dL. Serum concentrations of 3-alpha-androstanediol-glucuronide were quantitated by a validated radioimmunoassay method with a range of quantitation from 0.800 to 100 ng/mL, and serum concentrations of sex hormone binding globulin were determined using a validated two-site immunoradiometric assay (IRMA) method with a range of quantitation of 5 to 320 nmol/L for a 1:100 diluted sample.

Molecules are shown by their SMILES.

As for `C[C@]12CC[C@H]3[C@@H](CCC4=CC(=O)CC[C@@]43C)[C@@H]1CC[C@@H]2O` [testosterone, (17β)-17-Hydroxyandrost-4-en-3-one], the “equivalent absorbed daily dose” value is on record as 0.024 mg in series [1] (0.03% formulation BID both eyes), 0.094 mg in series [1] (0.1% formulation BID both eyes), 0.15 mg in series [1] (0.3% formulation BID both eyes) and 0.31 mg in series [1] (0.6% formulation BID both eyes). In addition, the “average increase of serum testosterone level” value is on record as 3.8 ng/dL in series [1] (0.03% formulation, 50 μL BID to both eyes (0.06 mg/day)); 15 ng/dL in series [1] (0.1% formulation, 50 μL BID to both eyes (0.2 mg/day)); 24 ng/dL in series [1] (0.3% formulation, 50 μL BID to both eyes (0.6 mg/day)); 49 ng/dL in series [1] (0.6% formulation, 50 μL BID to both eyes (1.2 mg/day)). Moreover, the “median Cmax of serum testosterone concentration” value in series [1] (0.03% ophthalmic solution) turned out to be 93.5 ng/dL; in series [1] (0.1% ophthalmic solution), 193 ng/dL; in series [1] (0.3% ophthalmic solution), 237 ng/dL; in series [1] (0.6% ophthalmic solution), 457 ng/dL. In series [1] (after dosing of testosterone ophthalmic solution), the “time for serum testosterone concentration to return to the baseline level” value came out at 12 h. In addition, in series [1] (in 2 hours after ophthalmical dosing), the “fraction of the peak serum level gone” value was “about 90%”. In addition, the “increase of serum testosterone concentration over the endogenous baseline” value in series [2] (0.1% solution) is 13%; in series [2] (0.3% solution), 36%. Moreover, the “safety concern from serum pharmacokinetic data” value in series [2] (4 month dosing period, 0.01%, 0.1% and 0.3% dose levels) was “did not indicate a safety concern”. The concentration at 10 min in series [2] (0.01% solution) amounted to 0.35 ng/mL; in series [2] (0.1% solution) it was 2 ng/mL; in series [2] (0.3% solution), 3.5 ng/mL.
